Measured values: patent US6667309B2, “Cyclobutene derivatives useful as antagonists of the motilin receptor” (Ortho-McNeil Pharmaceutical, Inc., priority 2000, dated 2003)

Target: T1, motilin receptors located on the colon of mature rabbits (Oryctolagus cuniculus, UniProt G1T803)
T1 construct: The muscle tissues were homogenized in 10 volumes of buffer; from tissue; host or cells: rabbit colon smooth muscle, crude membrane homogenate
Assay: Competition with radiolabeled motilin (porcine) binding, rabbit colon membranes
Set-up: species or system New Zealand rabbits
Conditions: I125 motilin (porcine), rabbit colon membrane
Protocol: The compounds of the invention were tested for their ability to compete with radiolabeled motilin (porcine) for the motilin receptors located on the colon of mature rabbits. The colon from mature New Zealand rabbits was removed, dissected free from the mucosa and serosa layers, and diced into small pieces. The muscle tissues were homogenized in 10 volumes of buffer (50 mM Tris-Cl, 10 mM MgCl2, 0.1 mg/mL bactracin, and 0.25 mM Peflabloc, pH 7.5) in a Polytron (29,000 rpm, 4×15 seconds). The homogenate was centrifuged at 1000×g for 15 min. and the supernatant discarded. The pellet was washed twice before being suspended in homogenizing buffer. This crude homogenate was then passed first through a 19 gauge needle then a 23 gauge needle to further suspend the material and stored at −80° C. […] The pellet was counted in the gamma counter to determine the percentage of […] motilin and thereby the percent inhibition of the test compound.
% inhibition was determined for some compounds by standard techniques: […]

T1 sequence (G1T803 1-400): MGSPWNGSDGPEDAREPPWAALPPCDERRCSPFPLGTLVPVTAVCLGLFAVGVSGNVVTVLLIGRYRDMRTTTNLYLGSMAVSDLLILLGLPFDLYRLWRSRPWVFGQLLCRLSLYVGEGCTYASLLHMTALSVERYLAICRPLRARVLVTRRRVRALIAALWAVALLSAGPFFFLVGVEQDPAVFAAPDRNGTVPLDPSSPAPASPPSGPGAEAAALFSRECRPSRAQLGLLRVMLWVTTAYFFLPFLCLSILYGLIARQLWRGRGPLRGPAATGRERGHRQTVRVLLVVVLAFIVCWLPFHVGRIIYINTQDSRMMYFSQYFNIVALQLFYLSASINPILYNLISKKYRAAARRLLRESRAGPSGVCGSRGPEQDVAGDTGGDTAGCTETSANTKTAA

| SMILES | % inhibition (@ 1,000 nM test compound) | % inhibition (@ 10,000 nM test compound) |
| --- | --- | --- |
| O=C(c1ccc(F)c(F)c1)N(CC1=CC(Cc2ccccc2)(NC(=O)C(Cl)(Cl)Cl)C1)c1cccc(OCCN2CCOCC2)c1 (centres unmarked) [example 6, 3-Benzyl-3-trichloroacetamido-1-[N-(3,4-difluorobenzoyl)]-N-[(3-(2-morpholinoethoxy)phenyl)amino]methylcyclobutene] | 14% |  |
| O=C(c1ccc(Br)cc1)N(CC1=CC(Cc2ccccc2)(NC(=O)C(Cl)(Cl)Cl)C1)c1cccc(OCCN2CCOCC2)c1 (centres unmarked) [example 7, 3-Benzyl-3-trichloroacetamido-1-[N-(4-bromobenzoyl)]-N-[(3-(2-morpholinoethoxy)phenyl)amino]methylcyclobutene] |  | 47% |
